28 compounds from US11713306B2, “5-substituted difluoropiperidine compounds with blood-brain barrier penetrable capability” (Wayshine Biopharm Holding Limited, priority 2018, dated 2023) can be followed below.

Where only a bound is given, the exact number is not on record here.

For the test, the target named is FYN (Homo sapiens (Human), UniProt P06241). Nature of the test: Kinase inhibition assay (Caliper, FAM-labeled peptide substrate). Format: biochemical. The method, then: 2.5 times of the kinase (VEGFR2 or EGFR or FYN) buffer solution was added to the compound diluted in equal concentration in the 384-well plate and incubated at 22-27° C. for 10 minutes, then 2.5 times of the FAM-labeled peptide substrate and ATP buffer solution were added therein and incubated at 28° C., and then the stop buffer solution was added to stop the reaction. The data was read by Caliper and the following formula was used to calculate the IC50 inhibition: Percent inhibition=(max-conversion)/(max-min)*100. Staurosporine was used as a control. In kinase inhibition assays, some of the compounds of the present invention are effective in inhibiting VEGFR2/FYN/EGFR, so they have the potential for treating or preventing cancer or central nervous system diseases (Table 1).
Chain of FYN (P06241 whole entry): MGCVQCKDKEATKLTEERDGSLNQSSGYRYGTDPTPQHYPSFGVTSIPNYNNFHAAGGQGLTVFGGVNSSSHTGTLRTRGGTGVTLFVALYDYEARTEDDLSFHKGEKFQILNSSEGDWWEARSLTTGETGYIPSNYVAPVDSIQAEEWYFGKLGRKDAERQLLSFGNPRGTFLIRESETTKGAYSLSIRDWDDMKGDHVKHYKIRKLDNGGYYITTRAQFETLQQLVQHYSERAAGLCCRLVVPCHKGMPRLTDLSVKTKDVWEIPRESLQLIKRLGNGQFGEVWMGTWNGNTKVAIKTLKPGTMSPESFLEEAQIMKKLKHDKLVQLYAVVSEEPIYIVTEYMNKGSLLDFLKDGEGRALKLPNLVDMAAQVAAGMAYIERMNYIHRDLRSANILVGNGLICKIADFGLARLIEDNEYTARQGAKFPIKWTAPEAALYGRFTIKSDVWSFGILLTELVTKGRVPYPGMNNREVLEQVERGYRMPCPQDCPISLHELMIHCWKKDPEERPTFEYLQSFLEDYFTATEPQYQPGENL

The term IC50 denotes the concentration that inhibits the measured activity by half. For `CCOc1cc(O[C@H]2CCN(C)CC2(F)F)c2c(Nc3c(Cl)ccc4c3OCO4)ncnc2c1` [Compound 41, (S)—N-(5-chlorobenzo[d][1,3]dioxolcyclopenten-4-yl)-5-((3,3-difluoro-1-methylpiperidin-4-yl)oxy)-7-ethoxyquinazolin-4-amine], the IC50 was under 100 nM. Then `COc1cc(O[C@@H]2CCN(C3COC3)CC2(F)F)c2c(Nc3c(F)ccc4c3OCO4)ncnc2c1` [Compound 29, (R)-5-((3,3-difluoro-1-(oxetane-3-yl)piperidin-4-yl)oxy)-N-(5-fluorobenzo[d] [1,3]dioxolcyclopenten-4-yl)-7-methoxyquinazolin-4-amine], with under 100 nM.

`COc1cc(O[C@@H]2CCN(C)CC2(F)F)c2c(Nc3c(F)ccc4c3OCO4)ncnc2c1` [Compound 21, (R)—N-(5-fluorobenzo[d][1,3]dioxolcyclopenten-4-yl)-5-((3,3-difluoro-1-methylpiperidin-4-yl)oxy)-7-methoxyquinazolin-4-amine] had an IC50 of under 100 nM. Then `CCN1CC[C@H](Oc2cc(OC)cc3ncnc(Nc4c(F)ccc5c4OCO5)c23)C(F)(F)C1` [Compound 42, (S)-5-((1-ethyl-3,3-difluoropiperidin-4-yl)oxy)-N-(5-fluorobenzo[d] [1,3]dioxolcyclopenten-4-yl)-7-methoxyquinazolin-4-amine], with under 100 nM; and `CCN1CCC(Oc2cc(OC)cc3ncnc(Nc4c(F)ccc5c4OCO5)c23)C(F)(F)C1` (racemic) [Compound 10, (R/S)-5-((1-ethyl-3,3-difluoropiperidin-4-yl)oxy)-N-(5-fluorobenzo[d] [1,3]dioxolcyclopenten-4-yl)-7-methoxyquinazolin-4-amine], with under 100 nM; and `COc1cc(O[C@H]2CCN(C(C)C)CC2(F)F)c2c(Nc3c(F)ccc4c3OCO4)ncnc2c1` [Compound 47, (S)-5-((3,3-difluoro-1-isopropylpiperidin-4-yl)oxy)-N-(5-fluorobenzo[d][1,3]dioxolcyclopenten-4-yl)-7-methoxyquinazolin-4-amine], with under 100 nM. The value for `COc1cc(O[C@H]2CCN(C)CC2(F)F)c2c(Nc3cc(OC)c(Cl)cc3F)ncnc2c1` [Compound 40, (S)—N-(4-chloro-2-fluoro-5-methoxyphenyl)-5-((3,3-difluoro-1-methylpiperidin-4-yl)oxy)-7-methoxyquinazolin-4-amine] was under 100 nM. The compound `COc1cc(OC2CCN(C(C)C)CC2(F)F)c2c(Nc3c(F)ccc4c3OCO4)ncnc2c1` (racemic) [Compound 15, (R/S)-5-((3,3-difluoro-1-isopropylpiperidin-4-yl)oxy)-N-(5-fluorobenzo[d][1,3]dioxolcyclopenten-4-yl)-7-methoxyquinazolin-4-amine] came in with an IC50 of under 100 nM. On to `COc1cc(OC2CCN(C)CC2(F)F)c2c(Nc3cc(OC)c(Cl)cc3F)ncnc2c1` (racemic) [Compound 8, (R/S)—N-(4-chloro-2-fluoro-5-methoxyphenyl)-5-((3,3-difluoro-1-methylpiperidin-4-yl)oxy)-7-methoxyquinazolin-4-amine], for which the 50% inhibitory concentration (IC50) is under 100 nM. The value for `COc1cc(O[C@H]2CCN(C3COC3)CC2(F)F)c2c(Nc3c(Cl)ccc4c3OCO4)ncnc2c1` [Compound 46, (S)-5-((3,3-difluoro-1-(oxetane-3-yl)piperidin-4-yl)oxy)-N-(5-chlorobenzo[d][1,3]dioxolcyclopenten-4-yl)-7-methoxyquinazolin-4-amine] was under 100 nM; that for `COc1cc(O[C@@H]2CCN(C)CC2(F)F)c2c(Nc3cc(OC)c(Cl)cc3F)ncnc2c1` [Compound 24, (R)—N-(4-chloro-2-fluoro-5-methoxyphenyl)-5-((3,3-difluoro-1-methylpiperidin-4-yl)oxy)-7-methoxyquinazolin-4-amine] was under 100 nM. `COc1cc(OC2CCN(C)CC2(F)F)c2c(Nc3c(Cl)ccc4c3OCO4)ncnc2c1` (racemic) [Compound 4, (R/S)—N-(5-chlorobenzo[d][1,3]dioxolcyclopenten-4-yl)-5-((3,3-difluoro-1-methylpiperidin-4-yl)oxy)-7-methoxyquinazolin-4-amine]: the half-inhibitory concentration (IC50) was under 100 nM. The value for `CCOc1cc(OC2CCN(C)CC2(F)F)c2c(Nc3c(F)ccc4c3OCO4)ncnc2c1` (racemic) [Compound 6, (R/S)—N-(5-fluorobenzo[d][1,3]dioxolcyclopenten-4-yl)-5-((3,3-difluoro-1-methylpiperidin-4-yl)oxy)-7-ethoxyquinazolin-4-amine] was under 100 nM; that for `COc1cc(O[C@@H]2CCN(C)CC2(F)F)c2c(Nc3c(Cl)ccc4c3OCO4)ncnc2c1` [Compound 28, (R)—N-(5-chlorobenzo[d] [1,3]dioxolcyclopenten-4-yl)-5-((3,3-difluoro-1-methylpiperidin-4-yl)oxy)-7-deuterated methoxyquinazolin-4-amine] was under 100 nM. Then `CCN1CC[C@@H](Oc2cc(OC)cc3ncnc(Nc4c(F)ccc5c4OCO5)c23)C(F)(F)C1` [Compound 26, (R)-5-((1-ethyl-3,3-difluoropiperidin-4-yl)oxy)-N-(5-fluorobenzo[d] [1,3]dioxolcyclopenten-4-yl)-7-methoxyquinazolin-4-amine], with under 100 nM; and `COc1cc(OC2CCN(C)CC2(F)F)c2c(Nc3c(F)ccc4c3OCO4)ncnc2c1` (racemic) [Compound 5, (R/S)—N-(5-fluorobenzo[d][1,3]dioxolcyclopenten-4-yl)-5-((3,3-difluoro-1-methylpiperidin-4-yl)oxy)-7-methoxyquinazolin-4-amine], with under 100 nM.

In turn, `CCOc1cc(O[C@@H]2CCN(C)CC2(F)F)c2c(Nc3c(Cl)ccc4c3OCO4)ncnc2c1` [Compound 25, (R)—N-(5-chlorobenzo[d][1,3]dioxolcyclopenten-4-yl)-5-((3,3-difluoro-1-methylpiperidin-4-yl)oxy)-7-ethoxyquinazolin-4-amine] gave an IC50 of under 100 nM.

In turn, `CCOc1cc(O[C@@H]2CCN(C)CC2(F)F)c2c(Nc3c(F)ccc4c3OCO4)ncnc2c1` [Compound 22, (R)—N-(5-fluorobenzo[d][1,3]dioxolcyclopenten-4-yl)-5-((3,3-difluoro-1-methylpiperidin-4-yl)oxy)-7-ethoxyquinazolin-4-amine] yielded an IC50 of under 100 nM. The value for `COc1cc(O[C@H]2CCN(C)CC2(F)F)c2c(Nc3c(Cl)ccc4c3OCO4)ncnc2c1` [Compound 36, (S)—N-(5-chlorobenzo[d][1,3]dioxolcyclopenten-4-yl)-5-((3,3-difluoro-1-methylpiperidin-4-yl)oxy)-7-methoxyquinazolin-4-amine] was under 100 nM. Then `COc1cc(OC2CCN(C3COC3)CC2(F)F)c2c(Nc3c(F)ccc4c3OCO4)ncnc2c1` (racemic) [Compound 13, (R/S)-5-((3,3-difluoro-1-(oxetane-3-yl)piperidin-4-yl)oxy)-N-(5-fluorobenzo[d][1,3]dioxolcyclopenten-4-yl)-7-methoxyquinazolin-4-amine], with under 100 nM.

`COc1cc(OC2CCN(C)CC2(F)F)c2c(Nc3c(Cl)ccc4c3OCO4)ncnc2c1` (racemic) [Compound 12, (R/S)—N-(5-chlorobenzo[d] [1,3]dioxolcyclopenten-4-yl)-5-((3,3-difluoro-1-methylpiperidin-4-yl)oxy)-7-deuterated methoxyquinazolin-4-amine] showed an IC50 of under 100 nM. The value for `COc1cc(O[C@H]2CCN(C)CC2(F)F)c2c(Nc3c(F)ccc4c3OCO4)ncnc2c1` [Compound 37, (S)—N-(5-fluorobenzo[d][1,3]dioxolcyclopenten-4-yl)-5-((3,3-difluoro-1-methylpiperidin-4-yl)oxy)-7-methoxyquinazolin-4-amine] was under 100 nM. The value for `CCOc1cc(OC2CCN(C)CC2(F)F)c2c(Nc3c(Cl)ccc4c3OCO4)ncnc2c1` (racemic) [Compound 9, (R/S)—N-(5-chlorobenzo[d][1,3]dioxolcyclopenten-4-yl)-5-((3,3-difluoro-1-methylpiperidin-4-yl)oxy)-7-ethoxyquinazolin-4-amine] was under 100 nM. Consider `COc1cc(O[C@@H]2CCN(C)CC2(F)F)c2c(Nc3c(F)ccc4c3OCO4)ncnc2c1` [Compound 23, (R)—N-(5-fluorobenzo[d][1,3]dioxolcyclopenten-4-yl)-5-((3,3-difluoro-1-methylpiperidin-4-yl)oxy)-7-deuterated methoxyquinazolin-4-amine], for which the IC50 is under 100 nM. Turning to `COc1cc(OC2CCN(C3COC3)CC2(F)F)c2c(Nc3c(Cl)ccc4c3OCO4)ncnc2c1` (racemic) [Compound 14, (R/S)-5-((3,3-difluoro-1-(oxetane-3-yl)piperidin-4-yl)oxy)-N-(5-chlorobenzo[d][1,3]dioxolcyclopenten-4-yl)-7-methoxyquinazolin-4-amine], the half-maximal inhibitory concentration (IC50) was under 100 nM.

Consider `CCOc1cc(O[C@H]2CCN(C)CC2(F)F)c2c(Nc3c(F)ccc4c3OCO4)ncnc2c1` [Compound 38, (S)—N-(5-fluorobenzo[d][1,3]dioxolcyclopenten-4-yl)-5-((3,3-difluoro-1-methylpiperidin-4-yl)oxy)-7-ethoxyquinazolin-4-amine], for which the IC50 is under 100 nM.

In turn, `COc1cc(O[C@@H]2CCN(C(C)C)CC2(F)F)c2c(Nc3c(F)ccc4c3OCO4)ncnc2c1` [Compound 31, (R)-5-((3,3-difluoro-1-isopropylpiperidin-4-yl)oxy)-N-(5-fluorobenzo[d] [1,3]dioxolcyclopenten-4-yl)-7-methoxyquinazolin-4-amine] returned an IC50 of under 100 nM. `COc1cc(O[C@@H]2CCN(C3COC3)CC2(F)F)c2c(Nc3c(Cl)ccc4c3OCO4)ncnc2c1` [Compound 30, (R)-5-((3,3-difluoro-1-(oxetane-3-yl)piperidin-4-yl)oxy)-N-(5-chlorobenzo[d][1,3]dioxolcyclopenten-4-yl)-7-methoxyquinazolin-4-amine] registered an IC50 of under 100 nM.
